Laboratory results as given in PMC12679585, “Design, synthesis, and characterization of novel 5-ethylsulfonyl-indazole-3-carboxamides as dual VEGFR-2 and EGFR inhibitors: apoptotic antiproliferative and immunomodulatory evaluations” (RSC Advances, 2025).

Experiments:
[1] = system: HCT-116 and MCF-7; test: Antiproliferative assay, average over the two cell lines; assay type: cell-based; conditions: Homo sapiens; average of HCT-116 and MCF-7; read-out: Average IC50 (GI50)
Excerpt: (§1) The MTT assay[53,54] was employed to evaluate the antiproliferative efficacy of new compounds 8a–l against two human cancer cell lines: MCF-7 (breast) and HCT-116 (colorectal carcinoma). Erlotinib was employed as the benchmark. Check Appendix A for additional experimental information.
(§2) The MTT assay[53,54] was used to evaluate the antiproliferative properties of novel compounds 8a–l against two human cancer cell lines: MCF-7 (breast cancer) and HCT-116 (colorectal carcinoma). Erlotinib was utilized as the reference. […] The provided values represent the means of three experiments ± standard deviation (SD).

[2] = system: HCT-116; test: Antiproliferative assay (MTT); assay type: cell-based; conditions: Homo sapiens, HCT-116 colorectal, mean of three experiments ± SD
Excerpt: as §1
as §2, with “(SD). […]” for “(SD).”
(§3) of Ham's F-12 medium/ Dulbecco's modified Eagle's medium (DMEM) (1:1) supplemented with 10% foetal calf serum (GIBCO, UK), 2 mM glutamine, insulin (10 μg/mL), hydrocortisone (500 ng/mL) and epidermal growth factor (20 ng/mL). Trypsin ethylenediamine tetra acetic acid (EDTA) was used to passage the cells after every 2-3 days. 96-well flat-bottomed cell culture plates were used to seed the cells at a density of 10^4 cells mL-1. The medium was aspirated from all the wells of culture plates after 24 h followed by the addition of synthesized compounds (in 200 μL medium to yield a final concentration of 0.1% (v/v) dimethyl sulfoxide) into individual wells of the plates.
(§4) Four wells were designated to a single compound. The plates were allowed to incubate at 37°C for 96 h. Afterwards, the medium was aspirated and 3-[4,5-dimethylthiazol-2-yl]-2,5-diphenyltetrazolium bromide (MTT) (0.4 mg/mL) in medium was added to each well and subsequently incubated for 3 h. The medium was aspirated and 150 μL dimethyl sulfoxide (DMSO) was added to each well. The plates were vortexed followed by the measurement of absorbance at 540 nm on a microplate reader. […]
(§5) All cell lines […]
(§6) were obtained from ATCC (American Type Cell Culture). […]
(§7) μM), benzamidine HCl (16 μg/mL), NaCl (10 mM),leupeptin (10 μg/mL) and pepstatin (10 μg/mL) at 0°C for 20 min at pH 7.4, followed by centrifugation for 20 min. To eliminate the nonspecifically bound material, a Ni-NTA super flow packed column was (1 picture or pasted object on this page, not shown here)

[3] = system: MCF-7; test: Antiproliferative assay (MTT); assay type: cell-based; conditions: Homo sapiens, MCF7, MCF-7 breast, mean of three experiments ± SD
Excerpt: as §1
as §2, with “(SD). […]” for “(SD).”
as §3, §4, §5, §6, §7

[4] = Cell viability assay (MTT) on normal mammary epithelial cells; assay type: cell-based; conditions: human, MCF-10A normal mammary gland epithelial cells, four days
Procedure: This test assesses the safety of new compounds 8a–l on normal cell lines. The efficacy of 8a–l was tested on the normal human mammary gland epithelial cell line MCF-10A. MCF-10A cells were incubated with 50 µM of each tested compound for four days. Cell viability was assessed using the MTT assay.[11,48] Appendix A has extra experimental details.
This assay evaluates the impact of novel compounds 8a–l on normal cell lines to determine their safety, an essential consideration in drug discovery. The efficacy of the examined compounds was evaluated utilizing the normal human mammary gland epithelial cell line MCF-10A. […]
4.2. Biological evaluation
4.2.1 Cell Viability assay (MTT assay)
as §3, with “MTT assay was performed to investigate the effect of the synthesized compounds on mammary epithelial cells (MCF-10A). The cells were propagated in medium consisting of Ham's” for “of Ham's”
as §4

[5] = target: VEGFR-2 kinase; set-up: method as in PMID 24456902; conditions: cited from earlier work
[6] = system: IL-6; test: IL-6 level by qRT-PCR in HCT-116 cells; conditions: HCT-116 cells, 24 hours, at IC50 against HCT-116 (8g 24 nM, 8h 23 nM), qRT-PCR
[7] = system: TNF-α; test: TNF-α level by qRT-PCR in HCT-116 cells; conditions: HCT-116 cells, 24 hours, at IC50 against HCT-116 (8g 24 nM, 8h 23 nM), qRT-PCR
[8] = system: Caspase-3; test: Caspase-3 activation assay in HCT-116 cells; assay type: cell-based, human
Procedure: Appendix A gives more details.
Additionally, activating caspases is essential for both initiating and terminating the apoptotic process.[64] Caspase-3 is an essential enzyme that cleaves several proteins within cells, leading to apoptotic cell death.[65] […]
be read immediately after the Stop Solution is added or within one hour if the microwell strips are stored at 2 - 8°C in the dark. Read the absorbance of each microwell on a spectrophotometer using 450 nm as the primary wavelength.
4.2.5. Caspase-3 activation assay
Allow all reagents to reach room temperature before use. Gently mix all liquid reagents prior to use. Determine the number of 8-well strips needed for the assay. Insert these in the frame(s) for current use. Add 100 μl of the Standard Diluent Buffer to the zero standard wells. Well(s) reserved for chromogen blank should be left empty. Add 100 μl of standards and controls or diluted samples to the appropriate microtiter wells. The sample dilution chosen should be optimized for each experimental system. Tap gently on side of plate to mix. Cover wells with plate cover and incubate for 2 hours at room temperature. Thoroughly aspirate or decant solution from wells and discard the liquid, Wash wells 4 times. Pipette 100 μl of Caspase-3 (Active) Detection Antibody solution into each well except the chromogen blank(s). Tap gently on the side of the plate to mix. Cover plate with plate cover and incubate for 1 hour at room temperature.
Thoroughly aspirate or decant solution from wells and discard the liquid, Wash wells 4 times. Add 100 μl Anti-Rabbit IgG HRP Working Solution to each well except the chromogen blank(s). Prepare the working dilution as described in Preparing IgG HRP.
Cover wells with the plate cover and incubate for 30 minutes at room temperature.
Thoroughly aspirate or decant solution from wells and discard the liquid. Wash wells 4 times. Add 100 μl of Stabilized Chromogen to each well. The liquid in the wells will […]
begin to turn blue. […] The
Tap side of plate gently to mix.
Use a curve fitting software to generate […]
for the dilution in step 3.
4.2.6. Caspase-8/9 activation assay
This lysate was diluted in […]

[9] = system: Caspase-9; test: Caspase-9 activation assay in HCT-116 cells
[10] = target: EGFR (Homo sapiens, UniProt P00533); set-up: 645–1186; His6 (N); made in house; host or cells: Sf-9 insect cells (baculovirus; vectors pBlueBacHis2B and pFASTBacHTc); method as in PMID 35667253; conditions: cited from earlier work
EGFR, sequence (P00533 669-1210): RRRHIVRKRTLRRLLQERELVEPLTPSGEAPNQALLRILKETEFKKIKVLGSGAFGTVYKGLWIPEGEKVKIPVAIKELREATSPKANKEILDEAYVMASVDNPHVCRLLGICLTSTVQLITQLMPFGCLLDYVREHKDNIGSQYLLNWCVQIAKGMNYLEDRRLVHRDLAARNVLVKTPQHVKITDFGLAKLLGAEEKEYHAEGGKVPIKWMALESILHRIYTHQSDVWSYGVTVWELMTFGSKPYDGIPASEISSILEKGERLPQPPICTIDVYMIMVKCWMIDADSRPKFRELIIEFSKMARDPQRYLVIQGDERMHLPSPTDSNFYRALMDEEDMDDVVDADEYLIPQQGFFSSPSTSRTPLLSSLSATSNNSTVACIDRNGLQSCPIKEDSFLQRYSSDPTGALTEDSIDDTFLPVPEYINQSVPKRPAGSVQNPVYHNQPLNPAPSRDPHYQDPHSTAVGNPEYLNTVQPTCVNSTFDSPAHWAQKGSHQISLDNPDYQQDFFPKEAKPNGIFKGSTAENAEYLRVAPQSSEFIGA

[11] = system: wild-type EGFR; set-up: method as in PMID 26275028; conditions: cited from earlier work

| IC50 [1] [µM] | IC50 [2] [µM] | IC50 [3] [µM] | Compound | viability at 4 days, 50 µM [4] [%] | further results |
| --- | --- | --- | --- | --- | --- |
| 0.035 | 0.031 ± 0.003 | 0.039 ± 0.003 | CCS(=O)(=O)c1ccc2[nH]nc(C(=O)NNC(=O)NC3CCCCC3)c2c1 [Compound 8e, 2-(5-(Ethylsulfonyl)-1H-indazole-3-carbonyl)-N-(cyclohexyl)hydrazine-1-carboxamide] | 91 | – |
| 0.031 | 0.03 ± 0.002 | 0.032 ± 0.002 | CCS(=O)(=O)c1ccc2[nH]nc(C(=O)NNC(=O)NCc3ccc(OC)cc3)c2c1 [Compound 8k, 2-(5-(Ethylsulfonyl)-1H-indazole-3-carbonyl)-N-(4-methoxybenzyl)hydrazine-1-carboxamide] | 92 | – |
| 0.034 | 0.031 ± 0.002 | 0.036 ± 0.002 | CCS(=O)(=O)c1ccc2[nH]nc(C(=O)NNC(=O)NCc3ccccc3)c2c1 [Compound 8j, 2-(5-(Ethylsulfonyl)-1H-indazole-3-carbonyl)-N-(benzyl)hydrazine-1-carboxamide] | 90 | – |
| 0.042 | 0.037 ± 0.003 | 0.046 ± 0.004 | CCS(=O)(=O)c1ccc2[nH]nc(C(=O)NNC(=O)NCCc3ccccc3)c2c1 [Compound 8l, 2-(5-(Ethylsulfonyl)-1H-indazole-3-carbonyl)-N-phenethylhydrazine-1-carboxamide] | 91 | – |
| 0.048 | 0.042 ± 0.004 | 0.054 ± 0.004 | CCCCCNC(=O)NNC(=O)c1n[nH]c2ccc(S(=O)(=O)CC)cc12 [Compound 8a, 2-(5-(Ethylsulfonyl)-1H-indazole-3-carbonyl)-N-pentylhydrazine-1-carboxamide] | 90 | – |
| 0.032 | 0.03 ± 0.002 | 0.034 ± 0.002 | CCCCCCCNC(=O)NNC(=O)c1n[nH]c2ccc(S(=O)(=O)CC)cc12 [Compound 8c, 2-(5-(Ethylsulfonyl)-1H-indazole-3-carbonyl)-N-heptylhydrazine-1-carboxamide] | 91 | – |
| 0.04 | 0.036 ± 0.003 | 0.044 ± 0.004 | CCS(=O)(=O)c1ccc2[nH]nc(C(=O)NNC(=O)Nc3ccc(F)cc3)c2c1 [Compound 8i, 2-(5-(Ethylsulfonyl)-1H-indazole-3-carbonyl)-N-(4-fluorophenyl)hydrazine-1-carboxamide] | 91 | – |
| 0.03 | 0.028 ± 0.001 | 0.031 ± 0.002 | CCCCCCCCNC(=O)NNC(=O)c1n[nH]c2ccc(S(=O)(=O)CC)cc12 [Compound 8d, 2-(5-(Ethylsulfonyl)-1H-indazole-3-carbonyl)-N-octylhydrazine-1-carboxamide] | 90 | – |
| 0.037 | 0.033 ± 0.003 | 0.04 ± 0.003 | CCCCCCNC(=O)NNC(=O)c1n[nH]c2ccc(S(=O)(=O)CC)cc12 [Compound 8b, 2-(5-(Ethylsulfonyl)-1H-indazole-3-carbonyl)-N-hexylhydrazine-1-carboxamide] | 92 | – |
| 0.045 | 0.039 ± 0.003 | 0.05 ± 0.004 | CCS(=O)(=O)c1ccc2[nH]nc(C(=O)NNC(=O)NC3CCC(C)CC3)c2c1 (centres unmarked) [Compound 8f, 2-(5-(Ethylsulfonyl)-1H-indazole-3-carbonyl)-N-(4-methylcyclohexyl)hydrazine-1-carboxamide] | 92 | – |

The remaining lines, values behind:

| Compound | IC50 [1] [µM] | IC50 [2] [µM] | IC50 [3] [µM] | viability at 4 days, 50 µM [4] [%] | further results |
| --- | --- | --- | --- | --- | --- |
| C#Cc1cccc(Nc2ncnc3cc(OCCOC)c(OCCOC)cc23)c1 [Erlotinib, reference compound] | 0.035 | 0.03 ± 0.002 | 0.04 ± 0.003 | – | – |
| C[C@@H]1C[C@H]2[C@@H]3CCC4=CC(=O)C=C[C@]4(C)[C@@]3(F)[C@@H](O)C[C@]2(C)[C@@]1(O)C(=O)CO [Dexamethasone, reference compound] | – | – | – | – | IL-6 (% inhibition) [6]: 93%; IL-6 (% inhibition) ([6]; listed as dexamethasone): 93.2%; TNF-α (% inhibition) [7]: 83%; TNF-α (% inhibition) ([7]; listed as dexamethasone): 82.7% |
| CN[C@@H]1C[C@H]2O[C@@](C)([C@@H]1OC)n1c3ccccc3c3c4c(c5c6ccccc6n2c5c31)C(=O)NC4 [Staurosporine, reference compound] | – | – | – | – | Caspase-3 Conc. [8]: 465 ± 4 pg/mL; Caspase-9 Conc. [9]: 20 ± 1 ng/mL |
| CC(=O)Nc1ccc(/C(N)=N/OC(=O)c2ccc3cn[nH]c3c2)cc1 [Compound XIII] | – | – | – | – | IC50 [10]: 0.085 ± 0.005 µM |
| CN(c1ccc2cn(C)nc2c1)c1ccnc(Nc2ccc(OC(F)(F)F)cc2)n1 [Compound XIV] | – | – | – | – | IC50 [5]: 0.012 µM |
| C=CC(=O)Nc1cccc(Oc2nc(Nc3n[nH]c4ccccc34)cc(N3CCN(C)CC3)n2)c1 [Compound XII] | – | – | – | – | IC50 [11]: 1.7 µM |
